Tests used:
CaMK2A+/- mice [1] = format: in vivo; conditions: for Discrimination index, rescue of NOR deficit, single agent at the dose used in the combination: CaMKIIα+/- mice, agent alone
Description: (§1) (See Yamasaki et al., “Alpha-CaMKII deficiency causes immature dentate gyrus, a novel candidate endophenotype of psychiatric disorders,” Molecular Brain, 1 (2008) 6; and McCarthy et al., “Microduplications of 16p11.2 are associated with schizophrenia,” Nat. Gene., 41 (2009) 1223-1227; respectively). Both models are relevant to human conditions. CaMK2A loss causes cognitive dysfunction and has been implication in psychiatric disorders including schizophrenia. (See Yamasaki et al., “Alpha-CaMKII deficiency causes immature dentate gyrus, a novel candidate endophenotype of psychiatric disorders,” Molecular Brain, 1 (2008) 6; Kool et al., “CAMK2-dependent Signaling in Neurons is Essential for Survival,” J. Neuroscience: the official journal of the Society for Neuroscience, 39 (2019) 5424-5439; and Papaleo et al., “Mouse models of genetic effects on cognition: relevance to schizophrenia,” Neuropharmacology, 62 (2012) 1204-1220). […] (See Niarchou et al., “Psychiatric disorders in children with 16p11.2 deletion and duplication,” Translational psychiatry, 9 (2019) 8). […] (FIG. 9).

16p11.2DUP mice [2] = experiment: Y maze in 16p11.2 duplication mouse model; format: in vivo; conditions: 0.1 mg/kg, ip, p<0.001
Description: as §1

PCP treated mouse = experiment: Social interaction in the PCP treated mouse; format: in vivo
[3] = system: scPCP-treated mice subjected to chronic unpredictable stress; experiment: Memory deficit in scPCP-treated mice subjected to chronic unpredictable stress (CUS); format: in vivo; conditions: chronic unpredictable stress 21 days, 0.1 mg/kg
Description: Bumetanide acts by blocking the NKCC1 cation-chloride cotransporter and causes the reversal potential of the GABAA-mediated current to become more hyperpolarized (thus the inhibitory effect becomes stronger). […] Most importantly, in-vivo administration of bumetanide rescues cognitive function in PCP mice and also prevents enduring deficit of cognitive function.

scPCP mice = experiment: Novel object recognition (NOR) test in subchronic phencyclidine (scPCP) mice; format: in vivo, C57BL/6J mice; conditions: for Discrimination index, novel object recognition (rescue of scPCP-induced NOR deficit): male C57BL/6J mice
Protocol: FIG. 7. Bumetanide treatment rescues the cognitive impairment in scPCP mice. Discrimination index calculated from novel object recognition tests. […] 10 mice were measured for each experimental group.
FIG. 8. Bumetanide rescues Novel Object Recognition task in female scPCP mice. […] Data are from 9 mice per group. One-way ANOVA followed by post-hoc bonferroni correction was done where significance was observed. p<0.01. (Additional data not shown).
To begin filling this gap, here we took advantage of the subchronic phencyclidine (scPCP) treatment, which is a well-established established rodent model of cognitive deficits in schizophrenia (Jentsch and Roth, 1999; Steeds et al. 2015) and performed patch clamp recordings from pyramidal neurons in acute slices of the IL cortex (ILC) and PL cortex (PLC). (FIG. 1).
Routine for mPFC recording. 3 week-old mice were injected with saline (vehicle) or PCP (0.1 mg/kg) two times a day for 7 consecutive days and rested for another 7 days without injections. They were then sacrificed for recordings within 7 days.

scPCP-treated mice = experiment: PCP- and amphetamine-induced increase in locomotor activity in scPCP-treated mice; format: in vivo; conditions: bumetanide 0.3 mg/ml, icy
Description: This can be interpreted as evidence for ability to treat delusions and hallucinations in psychotic disorders, including schizophrenia, major depression, bipolar disorder, various dementias, including vascular dementia and other neurodegenerative disorders. These finding have immediate translational value, as bumetanide is an already approved drug that could be promptly used to improve cognition in patients with cognitive impairment, psychosis, or negative symptoms in the disorders cited above.

CaMK2A+/- mice [4] = experiment: Y maze in CaMK2A+/- mouse model; format: in vivo; conditions: 0.1 mg/kg, ip, p<0.001
Description: as §1

16p11.2DUP mice [5] = experiment: Novel object recognition in 16p11.2 duplication mouse model; format: in vivo; conditions: 0.1 mg/kg, ip, p<0.001
Description: as §1

[6] = system: pyramidal neurons of the infralimbic cortex (ILC) of scPCP mice; experiment: GABAA reversal potential (EGABA), perforated patch recordings in acute mPFC slices; format: cell-based; conditions: bumetanide 0.3 mg/kg ip 30-40 min before dissection, 10 uM perfused into mPFC slice in incubation and recording chambers
Protocol: FIG. 4. (A) Left Panels: Example traces of GABAA current response by electrical stimulation in mPFC pyramidal neurons in control (top panel, black) and in scPCP (bottom, red). Bipolar electrode was put in layer 1, 100-200 um apart from recording site within layer2/3 with presence of 3 mM kynurenic acid to block any glutamatergic synaptic currents. The response was evoked by the same size of single stimulus (0.2-1 mA, 0.2 ms) at five different holding voltages (−100, −80, −60, −40, −20 mV) for each neuron. For each voltage, a neuron was tested multiple times and those 5-10 traces tested at the same voltage were averaged later for peak analysis. […] Right Panels: Example GABAA reversal potential (EGABA) of a neuron in control (top panel, black) and in scPCP (bottom, red) calculated from traces shown in (A). For the individual neuron, the peak size of current responses was measured (maximal current peak if the evoked response is positive while minimal current peak if negative) and plotted by holding voltages. […] Dotted gray lines to present average resting potentials for each group, which were measured by whole-cell patch recordings from separated neuron groups (each n>7). […] Dotted gray lines represent the resting potentials, which were measured by whole-cell patch recordings in different sets of experiment (each n>7). […]

[7] = system: PCP model of cognitive impairment; experiment: Prevention of development of cognitive impairment, given prior to PCP treatment; format: in vivo, mice; conditions: given prior to one week's treatment with PCP
Description: Bumetanide prevented the development of cognitive impairment when give prior to one weeks treatment with PCP. This is evidence that bumetanide could prevent the onset of cognitive impairment in schizophrenia and bipolar disorder. […] The discovery of these synergistic actions which will have value in the treatment of many neuropsychiatric disorders. Neurosteroids such as allopregnanolone is a GABA A agonist which could be used clinically with bumetanide to treat post-partum depression, other forms of depression.

Structure (SMILES)	Discrimination index, rescue of NOR deficit, single agent at the dose used in the combination (CaMK2A+/- mice [1])	Y maze performance (16p11.2DUP mice [2])	Social interaction (PCP treated mouse)	Memory deficit [3]	Performance in the novel object recognition task (scPCP mice; PCP-treated mice, oral administration of a single dose (FIG. 7))	Novel Object Recognition test (rescue of scPCP-induced deficits) (scPCP mice; female C57BL/6J mice, single dose IP, p<0.01)	Discrimination index, novel object recognition (rescue of scPCP-induced NOR deficit) (scPCP mice; 0.1 mg/kg, ip)	Discrimination index, novel object recognition (rescue of scPCP-induced NOR deficit) (scPCP mice; 0.3 mg/ml, icy)	PCP-induced increase in locomotor activity (scPCP-treated mice; PCP 10 mg/kg)	Amphetamine-induced increase in locomotor activity (scPCP-treated mice; amphetamine 2.5 mg/kg)	NOR performance (CaMK2A+/- mice [1]; CaMK2A+/- mice, 0.1 mg/kg, ip, p<0.001)	Y maze performance (CaMK2A+/- mice [4])	NOR performance (16p11.2DUP mice [5])	GABAA reversal potential in layer 2/3 and layer 5 of ILC [6]	Development of cognitive impairment [7]
Cc1nc2n(c(=O)c1CCN1CCC(c3noc4cc(F)ccc34)CC1)CCCC2 [risperidone]	ineffective	–	–	–	–	–	–	–	–	–	–	–	–	–	–
CCCCNc1cc(C(=O)O)cc(S(N)(=O)=O)c1Oc1ccccc1 [bumetanide]	sub-effective	completely rescued	effective	significantly rescued	completely rescues	significantly rescued	completely rescues	completely rescues	significantly blocked	significantly blocked	completely rescued	completely rescued	completely rescued	normalizes	prevented

From patent US11666547B2, “Methods for treating cognitive deficits in a subject having schizophrenia, bipolar disorder, or psychiatric depression, and exhibiting cognitive deficits by administering an antagonist of the Na+-K+-2Cl-cation-chloride cotransporter isoform 1 (NKCC1)” (NORTHWESTERN UNIVERSITY, priority 2019, dated 2023)
